Results published in patent US20200231545A1, “CHARGED ION CHANNEL BLOCKERS AND METHODS FOR USE THEREOF” (President and Fellows of Harvard College, priority 2019, published 2020).
Values joined by “and” are separate entries in the source; they are usually repeats but may differ in a detail not shown here. Identical values can stand only once.

Columns and labels:
human Nav1.7 channels = target: T1, human Nav1.7 channels (Homo sapiens, UniProt Q15858); experiment: Whole-cell patch clamp, use-dependent block of sodium current, compound dialyzed inside cells; format: cell-based; conditions: 10 micromolar intracellular; stimulation series 0.05 to 10 Hz; HEK293 hNav1.7
T1 construct: expressed in transfected cells
T1 sequence (Q15858 whole entry): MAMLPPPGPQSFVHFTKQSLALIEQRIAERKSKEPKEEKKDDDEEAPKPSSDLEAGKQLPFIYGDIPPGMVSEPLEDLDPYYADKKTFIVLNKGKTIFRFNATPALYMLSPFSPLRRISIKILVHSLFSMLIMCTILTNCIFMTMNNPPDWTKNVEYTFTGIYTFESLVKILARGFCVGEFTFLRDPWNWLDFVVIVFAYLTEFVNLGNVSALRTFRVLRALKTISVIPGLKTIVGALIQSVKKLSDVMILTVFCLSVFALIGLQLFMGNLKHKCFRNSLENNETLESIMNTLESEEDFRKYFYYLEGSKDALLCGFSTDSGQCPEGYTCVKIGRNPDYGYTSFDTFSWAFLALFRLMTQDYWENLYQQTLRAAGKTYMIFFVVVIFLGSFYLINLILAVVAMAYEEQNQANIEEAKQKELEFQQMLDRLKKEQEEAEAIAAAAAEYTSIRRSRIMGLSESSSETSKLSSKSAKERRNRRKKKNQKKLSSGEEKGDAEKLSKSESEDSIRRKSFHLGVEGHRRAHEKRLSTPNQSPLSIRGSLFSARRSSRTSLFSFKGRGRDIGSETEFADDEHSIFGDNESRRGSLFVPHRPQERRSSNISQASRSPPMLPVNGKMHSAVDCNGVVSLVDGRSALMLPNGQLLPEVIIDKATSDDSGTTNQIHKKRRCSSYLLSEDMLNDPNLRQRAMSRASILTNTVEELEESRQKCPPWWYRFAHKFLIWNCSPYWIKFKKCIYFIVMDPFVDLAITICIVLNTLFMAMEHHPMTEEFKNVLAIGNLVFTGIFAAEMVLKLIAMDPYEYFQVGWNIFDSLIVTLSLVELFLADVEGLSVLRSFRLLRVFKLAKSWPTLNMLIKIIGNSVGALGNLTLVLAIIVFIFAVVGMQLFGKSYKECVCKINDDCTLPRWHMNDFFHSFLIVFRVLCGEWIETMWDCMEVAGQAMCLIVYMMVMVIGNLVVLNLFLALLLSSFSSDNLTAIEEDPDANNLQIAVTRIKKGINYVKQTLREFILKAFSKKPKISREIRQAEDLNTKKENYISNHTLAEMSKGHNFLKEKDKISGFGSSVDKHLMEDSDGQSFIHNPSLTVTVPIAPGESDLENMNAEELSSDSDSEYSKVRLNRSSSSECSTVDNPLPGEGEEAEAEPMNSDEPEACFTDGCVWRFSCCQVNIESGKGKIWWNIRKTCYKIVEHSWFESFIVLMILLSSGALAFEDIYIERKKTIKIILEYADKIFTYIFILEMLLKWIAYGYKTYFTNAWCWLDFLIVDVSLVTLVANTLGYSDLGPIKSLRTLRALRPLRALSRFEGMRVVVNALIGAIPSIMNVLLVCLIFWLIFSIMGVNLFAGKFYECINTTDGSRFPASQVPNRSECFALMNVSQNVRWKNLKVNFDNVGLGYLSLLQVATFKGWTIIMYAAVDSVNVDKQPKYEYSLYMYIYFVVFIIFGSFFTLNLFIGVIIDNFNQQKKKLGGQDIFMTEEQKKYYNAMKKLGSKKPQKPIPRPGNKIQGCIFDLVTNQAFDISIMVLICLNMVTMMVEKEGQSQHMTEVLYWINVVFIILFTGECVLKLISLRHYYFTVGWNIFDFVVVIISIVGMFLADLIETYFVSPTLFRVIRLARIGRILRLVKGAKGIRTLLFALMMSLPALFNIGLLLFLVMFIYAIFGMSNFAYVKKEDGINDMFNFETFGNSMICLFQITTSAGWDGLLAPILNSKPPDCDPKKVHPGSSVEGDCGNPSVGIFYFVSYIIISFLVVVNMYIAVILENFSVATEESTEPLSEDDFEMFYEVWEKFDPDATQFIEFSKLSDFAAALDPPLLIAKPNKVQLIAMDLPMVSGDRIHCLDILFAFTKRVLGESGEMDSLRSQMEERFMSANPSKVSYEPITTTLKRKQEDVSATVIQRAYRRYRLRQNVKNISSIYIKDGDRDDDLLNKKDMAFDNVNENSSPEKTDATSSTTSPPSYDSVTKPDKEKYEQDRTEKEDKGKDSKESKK
Procedure: Whole-cell recordings were made of currents carried by voltage-activated sodium channels in HEK293 cells stably expressing human Nav1.7 channels. Recordings were made using patch pipettes with resistances of 2-3.5 MO when filled with internal solution, consisting of 61 mM CsF, 61 mM CsCl, 9 mM NaCl, 1.8 mM MgCl2, 9 mM EGTA, 14 mM creatine phosphate (tris salt), 4 mM MgATP, and 0.3 mM GTP (tris salt), 9 mM HEPES, pH adjusted to 7.2 with CsOH. The shank of the electrode was wrapped with Parafilm in order to reduce capacitance and allow optimal series resistance compensation without oscillation. Seals were obtained and the whole-cell configuration established with cells in Tyrode's solution (155 mM NaCl, 3.5 mM KCl, 1.5 mM CaCl2), 1 mM MgCl2, 10 mM HEPES, 10 mM glucose, pH adjusted to 7.4 with NaOH) with 10 mM TEACl. To ensure complete dialysis with pipette solution containing the test compounds, recordings began after 5 to 10 minutes after establishment of the whole-cell configuration.
Currents were recorded at room temperature (21-23° C.) with an Axopatch 200 amplifier or […] amplifier and filtered at 5-10 kHz with a low-pass Bessel filter. The amplifier was tuned for partial compensation of series resistance (typically 70-80% of a total series resistance of 4-10 MO). Currents were digitized using a Digidata 1322A data acquisition interface controlled by pClamp9 or pClamp10 software (Axon Instruments) and analyzed using programs written in Igor Pro 4.0 (Wavemetrics, Lake Oswego, Oreg.). Currents were corrected for linear capacitative and leak currents determined using 5 mV hyperpolarizations delivered from the resting potential (usually −80 or −100 mV) and then appropriately scaled and subtracted.
Sodium currents were evoked by 30-msec depolarizations from −100 mV to −20 mV. To assay use-dependent block, pulses were delivered at series of increasing rates: 0.05 Hz for 1-min, 0.33 Hz for 1-min, 1 Hz for 1-min, 3 Hz for 1-min, 5 Hz for 30 seconds, 10 Hz for 30 seconds, with 1 minute rest between each series of pulses. […]

[1] = tested on: citric acid induced cough; experiment: Citric acid induced cough in ovalbumin sensitized guinea pigs, inhaled treatment; format: in vivo, guinea pig; conditions: for inhibition of cough: inhaled one hour before 400 mM citric acid challenge, versus vehicle group; for Cough Count: total cough count of each individual animal, inhaled, one hour before citric acid
Procedure: Dunkin Hartley Guinea pigs were used in this study (male and female). On Day 0 all animals were sensitized with an intraperitoneal and subcutaneous injection of 50 mg chicken egg albumin (ovalbumin). Animals were administered 1 mL of a 50 mg/mL ovalbumin in 0.9% w/v saline solution via the intraperitoneal route and 0.5 mL of the same solution into 2 separate subcutaneous sites (1 mL in total divided between the left and right flank). All animals were administered a single intraperitoneal dose of pyrilamine (15 mg/kg) at a dose volume of 1 mL/kg approximately 30 minutes prior to ovalbumin challenge on Day 14 to inhibit histamine-induced bronchospasm. On Day 14, animals were challenged with aerosolised ovalbumin in 0.9% w/v saline (3 mg/mL) for 15 min.
Animals were placed in groups in an acrylic box. Then 8 mL of ovalbumin in saline was placed in each of two jet nebulisers (Sidestream®). Compressed air was passed through each nebuliser at approximately 6 L/min and the output of the nebulisers passed into the box containing the animals. On Day 15, approximately 24 hours after the inflammatory challenge with ovalbumin, animals were dosed with either vehicle, compound 1, or compound 2 by inhalation. One hour following the end of vehicle, compound 1, or compound 2 administration on Day 15, animals were placed into a whole body plethysmograph connected to a Buxco Finepointe system. All animals were then exposed to nebulized 400 mM citric acid for 7 minutes via an Aeroneb® nebuliser.
Cough counts and respiratory parameters (respiratory rate, tidal volume, minute volume and Penh) were recorded throughout the exposure period and for 10 minutes following the end of nebulization period.

Nav1.5 sodium channels = target: T2, Nav1.5 sodium channels (Homo sapiens, UniProt Q14524); experiment: Thallium flux assay, extracellular block of sodium channel in HEK293 cells; format: cell-based; conditions: HEK cells
T2 construct: expressed in transfected cells
T2 sequence (Q14524 whole entry): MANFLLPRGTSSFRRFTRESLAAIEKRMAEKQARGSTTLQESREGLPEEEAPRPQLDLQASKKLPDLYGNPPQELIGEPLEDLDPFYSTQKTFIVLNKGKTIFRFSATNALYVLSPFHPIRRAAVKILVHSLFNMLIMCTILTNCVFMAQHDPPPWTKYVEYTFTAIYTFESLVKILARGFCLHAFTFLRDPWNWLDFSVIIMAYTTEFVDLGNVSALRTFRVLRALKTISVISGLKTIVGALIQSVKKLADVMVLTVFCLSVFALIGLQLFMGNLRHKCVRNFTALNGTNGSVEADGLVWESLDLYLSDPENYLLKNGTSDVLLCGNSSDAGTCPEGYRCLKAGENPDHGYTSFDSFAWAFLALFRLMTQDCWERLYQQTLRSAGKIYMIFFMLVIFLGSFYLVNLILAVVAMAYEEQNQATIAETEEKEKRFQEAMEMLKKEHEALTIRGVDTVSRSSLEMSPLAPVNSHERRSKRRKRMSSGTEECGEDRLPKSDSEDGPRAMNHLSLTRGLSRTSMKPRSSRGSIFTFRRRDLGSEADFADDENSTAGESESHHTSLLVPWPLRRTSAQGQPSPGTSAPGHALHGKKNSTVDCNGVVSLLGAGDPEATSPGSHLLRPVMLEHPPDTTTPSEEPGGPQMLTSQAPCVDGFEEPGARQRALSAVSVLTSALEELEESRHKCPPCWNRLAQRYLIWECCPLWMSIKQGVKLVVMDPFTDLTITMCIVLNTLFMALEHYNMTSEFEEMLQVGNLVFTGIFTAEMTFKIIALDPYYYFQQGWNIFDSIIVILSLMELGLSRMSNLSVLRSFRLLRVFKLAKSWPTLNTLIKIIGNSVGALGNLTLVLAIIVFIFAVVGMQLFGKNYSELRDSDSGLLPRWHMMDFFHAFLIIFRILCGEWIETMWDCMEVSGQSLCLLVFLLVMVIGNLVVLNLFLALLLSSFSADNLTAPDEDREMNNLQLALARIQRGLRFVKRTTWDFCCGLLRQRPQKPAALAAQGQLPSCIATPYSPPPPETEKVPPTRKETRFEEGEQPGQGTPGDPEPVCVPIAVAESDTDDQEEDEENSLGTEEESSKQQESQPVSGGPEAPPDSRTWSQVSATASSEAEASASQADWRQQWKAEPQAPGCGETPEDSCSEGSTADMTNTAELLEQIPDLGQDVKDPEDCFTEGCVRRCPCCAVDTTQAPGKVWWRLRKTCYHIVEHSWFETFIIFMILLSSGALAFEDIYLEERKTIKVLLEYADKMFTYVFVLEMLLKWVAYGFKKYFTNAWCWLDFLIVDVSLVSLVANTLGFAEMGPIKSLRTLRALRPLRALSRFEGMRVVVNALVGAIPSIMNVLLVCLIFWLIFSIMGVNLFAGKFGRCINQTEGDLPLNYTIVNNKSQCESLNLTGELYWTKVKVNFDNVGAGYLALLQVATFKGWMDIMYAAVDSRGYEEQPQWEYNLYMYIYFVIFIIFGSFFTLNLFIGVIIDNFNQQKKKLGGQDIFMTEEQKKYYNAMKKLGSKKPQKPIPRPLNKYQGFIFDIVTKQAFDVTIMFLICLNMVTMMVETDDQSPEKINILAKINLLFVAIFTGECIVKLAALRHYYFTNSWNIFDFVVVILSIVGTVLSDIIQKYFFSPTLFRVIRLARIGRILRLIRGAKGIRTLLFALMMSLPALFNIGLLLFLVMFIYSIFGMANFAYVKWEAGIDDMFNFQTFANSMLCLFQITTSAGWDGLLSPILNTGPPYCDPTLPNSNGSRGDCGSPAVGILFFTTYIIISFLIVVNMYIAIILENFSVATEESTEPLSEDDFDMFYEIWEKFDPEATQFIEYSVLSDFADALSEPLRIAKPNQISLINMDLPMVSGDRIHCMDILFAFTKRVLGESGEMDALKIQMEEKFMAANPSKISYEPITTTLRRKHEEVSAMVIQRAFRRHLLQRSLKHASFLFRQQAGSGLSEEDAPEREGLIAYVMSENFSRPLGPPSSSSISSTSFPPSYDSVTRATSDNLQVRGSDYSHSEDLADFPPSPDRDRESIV
Procedure: (§1) Charged sodium channel blockers were tested for extracellular block of voltage-gated sodium channels in a thallium flux assay. Briefly, human embryonic kidney (HEK293) cells stably expressing either the Nav1.5 or Nav1.7 sodium channels were plated in 384 well plates. After overnight culture at 37° C., the cell culture medium was replaced the thallium-sensitive FluxOR dye (FluxOR assay kit, Thermo Fisher). Following a 60 minute incubation at room temperature, the dye-loading solution was replaced with assay buffer and the plates were loaded into a FDSS 7000EX multi-well plate reader (Hamamatsu). Dye fluorescence was measured using Fluo-4 filters (excitation 470 nm, emission 540 nm) at 1 Hz. Baseline fluorescence was measured for 30 s, followed by the addition of 15 μL/well of charged sodium channel blocker compounds. 10 minutes after compound addition, the cells were stimulated with a Tl^+ stimulus buffer and fluorescence measured. Tetraethylammonium (TEA) was used to block Kv channels and veratridine to block Nav channel inactivation. The fluorescence data was normalized with respect to no veratridine stimulus buffer control in order to isolate and measure the Nav channel component of the thallium flux.

Nav1.7 sodium channels = target: T3, Nav1.7 sodium channels (Homo sapiens, UniProt Q15858); experiment: as above; format: cell-based
T3 construct: expressed in transfected cells
T3 sequence (Q15858 whole entry): as the sequence (Q15858 whole entry) above
Procedure: as §1

[2] = tested on: endogenous Nav currents in TRPV1 expressing DRG neurons; experiment: Patch clamp of sodium currents in DRG neurons after pretreatment with capsaicin + blocker; format: cell-based, mouse; conditions: 100 micromolar with 300 nM capsaicin for 30 minutes, then washed off
Procedure: Charged sodium channel blockers were tested for intracellular block of voltage-gated sodium currents after entry through activated TRPV1 channels in dissociated mouse dorsal root ganglia (DRG) neurons in vitro. DRG neurons from 8-week-old C57/B16 mice were removed and placed in DMEM containing 1% penicillin-streptomycin (Sigma), then treated for 90 minutes with 5 mg/mL collagenase, 1 mg/mL Dispase II (Roche). Cells were triturated in the presence of DNase I […] (50 U), centrifuged through 10% BSA (Sigma), resuspended in 1 mL of Neurobasal medium (Sigma)+1X B27 supplement (Thermo Fisher) and 1% penicillin-streptomycin, and plated onto 35-mm tissue culture dishes (Becton Dickinson) coated with 20 μg/mL laminin, at 8,000-9,000 cells per dish. Cultures were incubated at 37° C. under 5% CO2. Recordings were made at room temperature within 24 hours of plating. The DRG neurons were treated with 300 nM capsaicin alone or 300 nM capsaicin+100 μM charged sodium channel blocker in external solution for 30 minutes, after which the blocker was washed off with fresh external solution. Whole-cell voltage-clamp recordings of sodium currents were performed in small diameter DRG neurons and then the expression of TRPV1 measured by perfusion of 1 μM capsaicin. […]

sodium current remaining after use-dependent block, % of the initial value (human Nav1.7 channels)	Compound	inhibition of cough [1] [%]	Cough Count [1]	extracellular block of Nav1.5 (Nav1.5 sodium channels; doses of up to 1 mM, applied extracellularly)	extracellular concentration at which dose dependent block of Nav1.5 starts (Nav1.5 sodium channels; thallium flux, FIG. 3) [millimolar]	Nav subtype selectivity (Nav1.7 sodium channels; Nav1.5 versus Nav1.7, thallium flux)	extracellular block of Nav1.7 (Nav1.7 sodium channels; doses of up to 1 mM, applied extracellularly, HEK cells)	extracellular concentration at which dose dependent block of Nav1.7 starts (Nav1.7 sodium channels; thallium flux, HEK cells, FIG. 4) [millimolar]	sodium currents in DRG neurons versus capsaicin alone [2]
about 14%	CCCC(C(=O)Nc1c(C)cccc1C)[N+]1(CC)CCCCC1 (centres unmarked) [Compound 2, 1-(1-((2,6-dimethylphenyl)amino)-1-oxopentan-2-yl)-1-ethylpiperidin-1-ium]	65	8 and 0 (5×) and 2 (2×) and 13 and 11 and 6 and 1						
about 62%	CC[N+](CC)(CC)CC(=O)Nc1c(C)cccc1C [QX-314, reference compound]								robust block

Compound	sodium current remaining after use-dependent block, % of the initial value (human Nav1.7 channels)	inhibition of cough [1] [%]	Cough Count [1]	extracellular block of Nav1.5 (Nav1.5 sodium channels; doses of up to 1 mM, applied extracellularly)	extracellular concentration at which dose dependent block of Nav1.5 starts (Nav1.5 sodium channels; thallium flux, FIG. 3) [millimolar]	Nav subtype selectivity (Nav1.7 sodium channels; Nav1.5 versus Nav1.7, thallium flux)	extracellular block of Nav1.7 (Nav1.7 sodium channels; doses of up to 1 mM, applied extracellularly, HEK cells)	extracellular concentration at which dose dependent block of Nav1.7 starts (Nav1.7 sodium channels; thallium flux, HEK cells, FIG. 4) [millimolar]	sodium currents in DRG neurons versus capsaicin alone [2]
CCC[N+]1(C(CC)C(=O)Nc2c(C)cccc2C)CCCCC1 (centres unmarked) [Compound 1, 1-(1-(2,6-dimethylphenylamino)-1-oxobutan-2-yl)-1-propylpiperidinium chloride]	about 15%	81	4 (2×) and 0 (7×) and 2 and 7 and 6	did not exhibit significant extracellular block	≥ 10	did not display any Nav subtype selectivity	did not exhibit significant extracellular block	≥ 10	considerably smaller
